Laboratory results as given in paper PMC3914206.

What was measured:
Format in all cases: binding
[1] = target: T1, panel of 442 kinases (Homo sapiens, UniProt P31751); settings: Compound Concentration 10 µM
T1 construct: purchased KINOMEscan
Description: (§1) We assessed the selectivity of members of this scaffold using the KINOMEscan methodology across a near comprehensive panel of 442 kinases [[18,27]].

[2] = target: T2, panel of 442 kinases (Homo sapiens, UniProt P43403); settings: kinase ZAP70; compound concentration 10 µM
T2 construct: purchased KINOMEscan
T2 sequence (P43403 1-619): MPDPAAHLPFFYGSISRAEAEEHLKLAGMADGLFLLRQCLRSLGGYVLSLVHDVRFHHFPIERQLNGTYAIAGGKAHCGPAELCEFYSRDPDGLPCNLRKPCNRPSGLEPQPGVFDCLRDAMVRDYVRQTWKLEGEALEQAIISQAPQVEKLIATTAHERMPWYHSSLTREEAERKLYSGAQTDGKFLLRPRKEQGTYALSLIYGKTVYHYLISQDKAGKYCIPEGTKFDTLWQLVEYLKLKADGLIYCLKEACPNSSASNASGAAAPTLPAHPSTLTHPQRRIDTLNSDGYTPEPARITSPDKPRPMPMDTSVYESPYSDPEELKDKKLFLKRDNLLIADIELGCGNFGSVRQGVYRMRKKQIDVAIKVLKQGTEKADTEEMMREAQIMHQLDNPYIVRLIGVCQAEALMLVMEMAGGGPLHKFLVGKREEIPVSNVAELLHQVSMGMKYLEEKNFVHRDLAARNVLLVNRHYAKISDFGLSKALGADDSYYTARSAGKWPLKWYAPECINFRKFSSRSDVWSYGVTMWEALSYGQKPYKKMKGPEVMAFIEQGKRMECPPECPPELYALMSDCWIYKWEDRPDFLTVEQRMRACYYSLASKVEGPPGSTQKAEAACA
Description: as §1

[3] = target: T3, panel of 442 kinases (Homo sapiens, UniProt P42336); settings: Compound Concentration 10 µM
T3 construct: purchased KINOMEscan
T3 sequence (P42336 whole entry): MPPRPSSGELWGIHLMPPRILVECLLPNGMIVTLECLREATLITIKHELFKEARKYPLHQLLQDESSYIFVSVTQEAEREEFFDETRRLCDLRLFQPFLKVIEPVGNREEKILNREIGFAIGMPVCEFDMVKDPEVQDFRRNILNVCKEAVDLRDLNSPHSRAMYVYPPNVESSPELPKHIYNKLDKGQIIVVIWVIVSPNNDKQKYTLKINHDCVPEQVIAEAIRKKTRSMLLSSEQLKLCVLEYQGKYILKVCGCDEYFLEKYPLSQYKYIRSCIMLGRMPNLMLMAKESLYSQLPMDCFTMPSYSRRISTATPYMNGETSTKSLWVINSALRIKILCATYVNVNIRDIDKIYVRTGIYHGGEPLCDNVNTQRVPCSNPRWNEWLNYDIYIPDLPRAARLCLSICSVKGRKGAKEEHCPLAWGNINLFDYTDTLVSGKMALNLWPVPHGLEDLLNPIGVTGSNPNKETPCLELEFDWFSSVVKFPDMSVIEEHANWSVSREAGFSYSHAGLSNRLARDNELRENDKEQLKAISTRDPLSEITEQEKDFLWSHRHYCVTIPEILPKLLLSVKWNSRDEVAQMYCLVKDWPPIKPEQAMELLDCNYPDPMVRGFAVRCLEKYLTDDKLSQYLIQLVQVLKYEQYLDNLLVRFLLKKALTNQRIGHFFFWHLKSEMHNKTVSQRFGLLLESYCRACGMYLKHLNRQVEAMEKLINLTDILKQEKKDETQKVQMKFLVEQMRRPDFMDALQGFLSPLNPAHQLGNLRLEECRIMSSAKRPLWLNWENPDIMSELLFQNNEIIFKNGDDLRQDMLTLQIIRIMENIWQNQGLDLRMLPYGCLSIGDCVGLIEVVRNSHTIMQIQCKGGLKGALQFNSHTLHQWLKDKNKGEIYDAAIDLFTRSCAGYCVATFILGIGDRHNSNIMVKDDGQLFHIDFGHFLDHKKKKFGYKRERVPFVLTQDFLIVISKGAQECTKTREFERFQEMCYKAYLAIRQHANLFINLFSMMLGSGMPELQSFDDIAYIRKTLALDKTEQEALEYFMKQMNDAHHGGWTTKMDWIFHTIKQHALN
Description: as §1

T1 sequence (P31751 whole entry): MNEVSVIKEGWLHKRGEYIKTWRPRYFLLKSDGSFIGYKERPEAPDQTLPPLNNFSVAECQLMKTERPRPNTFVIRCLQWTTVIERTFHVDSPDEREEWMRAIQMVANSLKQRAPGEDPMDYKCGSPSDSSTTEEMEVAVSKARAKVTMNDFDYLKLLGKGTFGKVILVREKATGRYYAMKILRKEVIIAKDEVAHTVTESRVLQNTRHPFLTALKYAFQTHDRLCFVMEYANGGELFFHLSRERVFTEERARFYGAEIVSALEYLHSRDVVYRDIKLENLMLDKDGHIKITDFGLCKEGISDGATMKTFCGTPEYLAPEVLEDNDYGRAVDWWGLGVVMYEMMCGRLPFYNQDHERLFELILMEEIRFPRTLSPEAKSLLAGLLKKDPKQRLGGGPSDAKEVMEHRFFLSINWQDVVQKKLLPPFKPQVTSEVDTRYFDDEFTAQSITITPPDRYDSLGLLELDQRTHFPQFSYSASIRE

Row | SMILES | KINOMEscan: AKT2 [1] | % Ctrl, ZAP70 [2] [% Ctrl] | KINOMEscan: PIK3CA [3]
1 | CCOc1cc(C(=O)N2CCC(N3CCN(C)CC3)CC2)ccc1Nc1ncc2c(n1)N(C1CCCC1)c1ccccc1C(=O)N2C [Compound 26] | 100 | 90 | 100
2 | COc1cc(C(=O)N2CCC(N3CCN(C)CC3)CC2)ccc1Nc1ncc2c(n1)N(C1CCCC1)c1ccccc1C(=O)N2C [Compound 25, 11-cyclopentyl-2-((2-methoxy-4-(4-(4-methylpiperazin-1-yl)piperidine-1-carbonyl)phenyl)amino)-5-methyl-5H-benzo[e]pyrimido[5,4-b][1,4]diazepin-6(11H)-one] | 100 | 79 | 100
3 | COc1cc(C(=O)N2CCC(N3CCN(C)CC3)CC2)ccc1Nc1ncc2c(n1)N1CCc3cccc(c31)C(=O)N2C [Compound 24] | – | 100 | –
4 | COc1cc(C(=O)N2CCC(N3CCN(C)CC3)CC2)ccc1Nc1ncc2c(n1)N(C)c1ccccc1C(=O)N2C [15 (LRRK2-IN-1)] | 100 | 79 | 74
